Read-outs that look alike come from different tables or passages of the source.

One test deals with T1, BGT1 Q299L (Homo sapiens, UniProt P48065, Q299L).
T1 construct: expressed in transfected cells; host or cells: tsA201 (transformed HEK293), transient
T1 sequence (P48065 1-614 Q299L): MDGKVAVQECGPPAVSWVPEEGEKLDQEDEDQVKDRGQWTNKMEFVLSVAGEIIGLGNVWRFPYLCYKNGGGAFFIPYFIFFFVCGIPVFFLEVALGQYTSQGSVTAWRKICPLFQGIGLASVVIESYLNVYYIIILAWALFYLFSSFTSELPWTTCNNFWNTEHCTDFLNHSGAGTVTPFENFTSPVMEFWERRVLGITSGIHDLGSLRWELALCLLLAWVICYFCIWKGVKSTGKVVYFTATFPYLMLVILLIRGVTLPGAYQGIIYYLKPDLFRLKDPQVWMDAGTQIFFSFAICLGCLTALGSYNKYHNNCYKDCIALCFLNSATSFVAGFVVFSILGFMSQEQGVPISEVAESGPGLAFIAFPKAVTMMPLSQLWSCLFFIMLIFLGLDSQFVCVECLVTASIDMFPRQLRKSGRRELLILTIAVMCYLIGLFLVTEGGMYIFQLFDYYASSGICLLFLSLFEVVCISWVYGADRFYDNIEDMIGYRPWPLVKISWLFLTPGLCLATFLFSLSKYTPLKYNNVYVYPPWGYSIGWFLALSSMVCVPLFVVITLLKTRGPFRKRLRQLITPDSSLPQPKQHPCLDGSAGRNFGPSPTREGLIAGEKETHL
The test is described as follows: [3H]GABA uptake assay, transient expression in tsA201 cells. The test is classed as cell-based. Particulars: for IC50: BGT1 Q299L, tsA201 cells. The source says: The residue Q299 in human BGT1 corresponds to leucine in all other GATs (human, rat, mouse), while E52 corresponds to tyrosine in GAT1 (human, rat, mouse) but is conserved among GAT2, GAT3 and BGT1 (human, rat, mouse) (Figure 6A) ([Kickinger et al., 2019]).
FIGURE 6 (A) Pocket alignment of the orthosteric site of the four GAT subtypes colored according to the default ClustalX color scheme ([Larkin et al., 2007]). The pocket was defined as all corresponding GAT residues (15 in total) that are within a distance of 4.5 Å of the co-crystallized ligand leucine in the homologous LeuT crystal structure (PDB ID 2A65) ([Yamashita et al., 2005]) according to the alignment by Kickinger et al. ([Kickinger et al., 2019]). The mutated residues in BGT1 and the corresponding residues in GAT1-3 are indicated by a red box. The numbering of all residues within the orthosteric pocket can be found in the Supplementary Table S1.
The tsA201 cell line (a transformed HEK293 cell line), the Flp-In CHO cell lines stably expressing human (h) GATs and the HEK293 cell line stably expressing human α1β2γ2 GABAA receptors have been described previously and were cultured accordingly ([Al-Khawaja et al., 2014]; [Falk-Petersen et al., 2020]). The tsA201 cell line used for transient expression of hGATs was transfected with DNA constructs (8 μg per 10 cm plate) using 40 μL PolyFect transfection reagent according to the manufacturer’s protocol (Qiagen).
Briefly, cells were seeded in white 96-well plates (White Opaque Tissue Culture (TC) plated 96-well Microplate) pre-coated with PDL. Medium was removed on the following day and cells washed with 100 µL/well assay buffer (HBSS supplemented with 20 mM HEPES, 1 mM CaCl2 and 1 mM MgCl2, pH 7.4). […] The cells were washed 3 times with 100 µL/well ice-cold assay buffer, 150 µL/well MicroScint™20 was subsequently added before the plate was shaken for at least 1 h. The plate was counted in a Packard TopCounter microplate scintillation counter (PerkinElmer) for 3 min per well. […] Data presented is the pooled data of at least three independent experiments with three technical replicates if not stated otherwise in figure legends. Concentration–response curves were fitted by non-linear regression to the sigmoidal concentration-response model with GraphPad Prism (version 9.0.0, GraphPad Software, San Diego, CA, United States) as described ([Lie et al., 2020]).

The next test has as its system BGT1. On the set-up: method as in Kobayashi et al., 2014. Particulars: ref Kobayashi et al., 2014, cited from earlier work.

On to `N[C@@]12CC[C@H](C(=O)O)[C@@H]1C2` [bicyclo-GABA, (1S,2S,5R)-5-aminobicyclo[3.1.0]hexane-2-carboxylic acid], for which the “Decrease in inhibitory activity compared to wildtype” value on BGT1 Q299L (BGT1 Q299L vs BGT1 wt) is given as 32 times. Besides, the values for the IC50 on BGT1 Q299L (read-out: IC50) and in the test on BGT1 (BGT1 inhibition) were 48 µM and 0.59 µM, respectively. The “Higher activity for BGT1 compared to 1” value in the test with BGT1 is listed as 9 times. For the same molecule, the “Higher activity for BGT1 than GAT3” value in the test on BGT1 (subtype-selectivity BGT1 vs GAT3) is 129 times.

`CN[C@@]12CC[C@H](C(=O)O)[C@@H]1C2` [compound 2]: the IC50 on BGT1 Q299L (read-out: IC50) was 59 µM; on BGT1 Q299L (read-out: pIC50 ± S.E.M. (converted)), 50.1 µM.

These data come from article PMC8476755 (Frontiers in Chemistry, 2021).
